Measurements taken from patent US20090054412A1, “Treatment of Sleep Disorders” (priority 2007, published 2009).
Where “and” joins values, the source holds several entries; their conditions need not be identical. Identical values can stand only once.

Assays:
[1] = biological target: T1, rat GABAA receptors α2β2γ2 (Rattus norvegicus, UniProt P18508+P23576); assay: Stimulation of GABA (EC3-5)-elicited currents in Xenopus oocytes, two-electrode voltage clamp, α2β2γ2; type: cell-based
T1 construct: expressed in transfected cells; host or cells: Xenopus laevis oocytes, cRNA microinjected
T1 sequence (P23576 29-451): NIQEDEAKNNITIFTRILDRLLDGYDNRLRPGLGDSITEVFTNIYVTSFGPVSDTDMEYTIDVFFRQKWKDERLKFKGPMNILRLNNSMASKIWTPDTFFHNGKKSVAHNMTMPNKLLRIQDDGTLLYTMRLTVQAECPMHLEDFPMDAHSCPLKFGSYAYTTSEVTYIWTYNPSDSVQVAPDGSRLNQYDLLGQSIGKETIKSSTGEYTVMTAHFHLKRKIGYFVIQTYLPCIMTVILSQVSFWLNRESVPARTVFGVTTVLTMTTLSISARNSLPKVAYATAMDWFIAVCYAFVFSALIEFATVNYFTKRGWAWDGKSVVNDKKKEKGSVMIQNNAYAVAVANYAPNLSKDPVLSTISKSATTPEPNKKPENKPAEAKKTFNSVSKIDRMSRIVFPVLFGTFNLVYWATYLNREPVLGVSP
T1 sequence (P63138 25-474 partner limits assumed): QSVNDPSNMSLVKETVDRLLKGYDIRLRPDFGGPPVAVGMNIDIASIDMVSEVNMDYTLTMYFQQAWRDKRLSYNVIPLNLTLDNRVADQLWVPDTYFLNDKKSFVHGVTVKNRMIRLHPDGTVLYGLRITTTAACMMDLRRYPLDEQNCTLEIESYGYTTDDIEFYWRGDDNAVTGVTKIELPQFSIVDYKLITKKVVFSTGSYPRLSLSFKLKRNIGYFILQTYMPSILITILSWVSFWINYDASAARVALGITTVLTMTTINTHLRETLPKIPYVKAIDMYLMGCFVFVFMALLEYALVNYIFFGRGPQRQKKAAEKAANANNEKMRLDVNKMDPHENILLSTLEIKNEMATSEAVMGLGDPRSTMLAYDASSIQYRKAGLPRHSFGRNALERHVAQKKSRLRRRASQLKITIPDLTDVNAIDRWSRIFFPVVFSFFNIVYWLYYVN
T1 sequence (P18508 39-466): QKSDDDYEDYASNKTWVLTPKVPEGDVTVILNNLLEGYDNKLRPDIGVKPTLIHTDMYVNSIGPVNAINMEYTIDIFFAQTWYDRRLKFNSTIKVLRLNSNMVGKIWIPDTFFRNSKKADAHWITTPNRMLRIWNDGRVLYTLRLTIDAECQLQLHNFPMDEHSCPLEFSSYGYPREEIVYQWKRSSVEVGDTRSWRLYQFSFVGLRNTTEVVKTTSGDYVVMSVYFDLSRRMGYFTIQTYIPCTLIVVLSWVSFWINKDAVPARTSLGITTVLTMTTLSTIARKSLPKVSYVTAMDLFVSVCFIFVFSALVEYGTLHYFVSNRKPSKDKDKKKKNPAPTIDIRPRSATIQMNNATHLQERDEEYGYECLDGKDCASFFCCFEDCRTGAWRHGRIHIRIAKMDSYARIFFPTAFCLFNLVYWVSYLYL
Description: (§1) 7-Chloro-3-(5-dimethylaminomethyl-[1,2,4]oxadiazol-3-yl)-5methyl-4,5-dihydro-imidazol[1,5,-a][1,4]benzodiazepine-6-one was used to test the effects of the compound of formula (II): […]
(§2) Similar procedures were chosen as for the investigation of other GABAA receptor subunit specific substances (e.g., Baur et al., 2005; Mol. Pharmacol. 68, 787-792).
(§3) Lobes of the ovary containing the follicles were obtained by surgical procedures from female Xenopus laevis. Follicles were singled out using a platinum loop. Fifty nL of cRNA solution at a ratio of αx:β2:γ2 of 1:1:5 (3.3-10 nM αx (x=1,2,3,5); 3.3-10 nM β2; 16.7-50 nM γ2) (Boileau et al., 2002; Neuropharmacology 43, 695-700) were microinjected into Xenopus follicles. Several hours after microinjection the follicles were freed of follicular layers and adhering connective tissue by a collagenase/hypertonic shock procedure (Sigel, 1987; J. Physiol.(Land) 386, 73-90). Oocytes were kept at constant 18° C. until measurement (1-4 days) in a modified Barth solution (88 mM NaCl, 1 mM KCl, 2.4 mM NaHCO3, 10 mM Hepes-NaOH (pH 7.5), 0.82 mM MgSO4×7H2O, 0.34 mM Ca(NO3)2×4H2O, 0.41 mM CaCl2×2H2O, 100 U Penicillin/mL, 100 μg Streptomycin/mL, sterile filtered).
(§4) Currents were measured using a home-built amplifier in combination with a xy-recorder or were digitized using a MacLab/200 (AD Instruments) and stored on a computer. Xenopus oocytes were voltage clamped using the two-electrode voltage clamp technique (electrode resistance about 0.8 MΩ) at −80 mV. The medium contained 90 mM NaCl, 1 mM KCl, 1 mM MgCl2, 1 mM CaCl2, 10 mM Na-Hepes (pH 7.4) and 0.5% DMSO.
(§5) GABA was applied for 20-50 seconds without or in combination with other drugs and a washout period of 4 minutes was allowed to ensure full recovery from desensitization, which was experimentally determined. The perfusion solution (6 mL/min) was applied through a glass capillary with an inner diameter of 1.35 mm, the mouth of which was placed about 0.4 mm from the surface of the oocyte. The rate of solution change under our conditions has been estimated 70% within less than 0.5 s (Sigel et al., 1990; Neuron 5, 703-711). The entire perfusion system and the assay chamber were cleaned between drug applications by washing with DMSO.
(§6) Data is given as mean±SD, except in the figures where data is shown for clarity as mean±SEM. Current stimulation was calculated as follows: stimulation (%)=((I(GABA+modulator)−I(GABA))/I(GABA))×100%, where I is the current amplitude. Where indicated, the stimulation was standardized to the stimulation by 1 μM diazepam (100%). To obtain FIGS. 1-4, values for current stimulation obtained at a given concentration of modulator at a given subunit combination were averaged. The data points were fitted with the equation stimulation=efficacy/(1+(potency/concentration of modulator)). The values given in the Tables (Summary) are obtained by fitting individual curves and subsequently averaging efficacy and potency.
(§7) Concentration response curves were also performed with oocytes expressing α2β2γ2, α3β2γ2, or α5β2γ2, after establishing the optimal concentration range as indicated above. […] Averaged data of the individual curves summarizing the effects of the compound of formula (II) are shown below for unstandardized and standardized stimulation.
(§8) Concentration response curves were also performed with oocytes expressing α2β2γ2, α3β2γ2, or α5β2γ2.
(§9) Current stimulation by diazepam was determined in each batch of oocytes as follows. GABA (EC3-5) was applied until a stable response was obtained. Subsequently, GABA was applied in combination with 1 μM diazepam.

[2] = test system: GABAA receptors; conditions: 20 mg, in man, PET; cited from earlier work
[3] = biological target: T2, rat GABAA receptors α3β2γ2 (Rattus norvegicus, UniProt P18508+P20236); assay: Stimulation of GABA (EC3-5)-elicited currents in Xenopus oocytes, two-electrode voltage clamp, α3β2γ2; type: cell-based
T2 construct: expressed in transfected cells; host or cells: Xenopus laevis oocytes, cRNA microinjected
T2 sequence (P20236 29-493): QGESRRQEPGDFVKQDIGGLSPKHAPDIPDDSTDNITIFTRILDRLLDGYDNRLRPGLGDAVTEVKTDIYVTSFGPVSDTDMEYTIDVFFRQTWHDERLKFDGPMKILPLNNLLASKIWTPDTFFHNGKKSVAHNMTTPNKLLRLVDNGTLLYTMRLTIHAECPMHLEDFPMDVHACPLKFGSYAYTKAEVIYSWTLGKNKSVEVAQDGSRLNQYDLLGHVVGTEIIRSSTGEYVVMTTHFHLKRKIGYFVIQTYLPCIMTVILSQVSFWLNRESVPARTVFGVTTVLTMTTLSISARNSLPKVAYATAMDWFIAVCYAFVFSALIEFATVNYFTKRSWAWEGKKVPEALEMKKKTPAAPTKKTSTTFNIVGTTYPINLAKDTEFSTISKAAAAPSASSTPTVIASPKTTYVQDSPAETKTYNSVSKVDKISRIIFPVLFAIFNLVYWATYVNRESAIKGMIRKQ
T2 sequence (P63138 25-474 partner limits assumed): as the sequence (P63138 25-474 partner limits assumed) above
T2 sequence (P18508 39-466): as the sequence (P18508 39-466) above
Description: as §1, §2, §3, §4, §5, §6, §7, §8, §9

[4] = biological target: T3, rat GABAA receptors α1β2γ2 (Rattus norvegicus, UniProt P18508+P62813); assay: Stimulation of GABA (EC3-5)-elicited currents in Xenopus oocytes, two-electrode voltage clamp, α1β2γ2; type: cell-based; conditions: for Standardized Efficacy: standardized to stimulation by 1 μM diazepam (100%)
T3 construct: expressed in transfected cells; host or cells: Xenopus laevis oocytes, cRNA microinjected
T3 sequence (P62813 28-455): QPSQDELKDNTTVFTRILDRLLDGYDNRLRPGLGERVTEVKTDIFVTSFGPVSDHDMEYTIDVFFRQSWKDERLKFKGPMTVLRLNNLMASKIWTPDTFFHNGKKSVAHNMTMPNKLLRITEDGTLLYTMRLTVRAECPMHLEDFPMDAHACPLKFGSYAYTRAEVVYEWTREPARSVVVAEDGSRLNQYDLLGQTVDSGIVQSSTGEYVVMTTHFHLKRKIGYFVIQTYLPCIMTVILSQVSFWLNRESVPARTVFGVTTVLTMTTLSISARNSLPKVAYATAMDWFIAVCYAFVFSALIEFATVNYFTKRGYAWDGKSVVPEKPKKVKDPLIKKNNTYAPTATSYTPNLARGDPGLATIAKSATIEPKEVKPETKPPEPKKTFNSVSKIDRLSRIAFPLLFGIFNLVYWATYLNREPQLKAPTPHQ
T3 sequence (P63138 25-474 partner limits assumed): as the sequence (P63138 25-474 partner limits assumed) above
T3 sequence (P18508 39-466): as the sequence (P18508 39-466) above
Description: as §1, §2, §3, §4, §5, §6
GABA (EC3-5) was applied to an oocyte expressing α1β2γ2 GABAA receptors several times until the current response was stable. The GABA (EC3-5) refers to the effective concentration of GABA, which produces a response that is 3-5% of the maximal response to high concentrations of GABA. Such a low concentration of GABA is chosen in order to better see the potentiating effect of positive allosteric modulators.
GABA was then applied in combination with various concentrations of the compound of formula (II) between 0.3 nM and 3,000 nM to produce a cumulative concentration response curve. […] In each batch of oocytes the stimulation by 1 μM diazepam was determined in five ocytes, extent of stimulation averaged and defined as 100%. Where indicated, stimulation by the compound of formula (II) in each batch of ocytes was expressed as a percentage of this value in the corresponding batch.
GABA (EC3-5) was applied to an oocyte expressing α1β2γ2 GABAA receptors several times until the current response was stable.

[5] = biological target: T4, rat GABAA receptors α5β2γ2 (Rattus norvegicus, UniProt P18508+P19969); assay: Stimulation of GABA (EC3-5)-elicited currents in Xenopus oocytes, two-electrode voltage clamp, α5β2γ2; type: cell-based
T4 construct: expressed in transfected cells; host or cells: Xenopus laevis oocytes, cRNA microinjected
T4 sequence (P19969 32-464 limits assumed): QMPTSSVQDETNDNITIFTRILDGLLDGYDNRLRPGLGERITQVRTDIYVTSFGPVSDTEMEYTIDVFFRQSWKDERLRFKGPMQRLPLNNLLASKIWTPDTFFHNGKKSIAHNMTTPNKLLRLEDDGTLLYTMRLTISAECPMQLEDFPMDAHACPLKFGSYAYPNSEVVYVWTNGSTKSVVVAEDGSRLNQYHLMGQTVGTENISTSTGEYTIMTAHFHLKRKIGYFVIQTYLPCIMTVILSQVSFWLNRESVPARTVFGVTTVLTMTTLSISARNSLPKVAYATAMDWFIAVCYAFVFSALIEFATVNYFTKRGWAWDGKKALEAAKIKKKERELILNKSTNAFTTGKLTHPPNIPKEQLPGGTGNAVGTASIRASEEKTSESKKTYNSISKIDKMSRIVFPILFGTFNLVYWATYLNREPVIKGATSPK
T4 sequence (P63138 25-474 partner limits assumed): as the sequence (P63138 25-474 partner limits assumed) above
T4 sequence (P18508 39-466): as the sequence (P18508 39-466) above
Description: as §1, §2, §3, §4, §5, §6, §7, §8, §9

[6] = standardized to stimulation by 1 μM diazepam (100%)
[7] = unstandardized current stimulation
[8] = 1 μM, different batches of oocytes, n=5

Row | Compound | Standardized Efficacy [1, 6] | Efficacy [1, 7] | receptor occupancy [2] | Standardized Efficacy [3, 6] | Efficacy [3, 7] | Intrinsic activity / type of allosteric modulation ([4]; GABAA receptor benzodiazepine site, relative to diazepam) | Receptor subtype affinity ([4]; in comparison to α2β2γ2, α3β2γ2 and α5β2γ2) | Standardized Efficacy ([4]; α1β2γ2) | Standardized Efficacy ([4]; α1β2γ2, listed as zolpidem) | Efficacy ([4]; α1β2γ2, unstandardized current stimulation) | Standardized Efficacy [5, 6] | Efficacy [5, 7] | Stimulation by 1 μM diazepam [1, 8] | Stimulation by 1 μM diazepam [3, 8] | Stimulation by 1 μM diazepam ([4]; α1β2γ2, 1 μM, different batches of oocytes, n=5) | Stimulation by 1 μM diazepam [5, 8]
1 | Cc1ccc(-c2nc3ccc(C)cn3c2CC(=O)N(C)C)cc1 [Zolpidem, zolpidem] | 179 ± 23% | 484 ± 60% | about 20% | 166 ± 88% | 691 ± 365% | full agonist | higher affinity at α1β2γ2 GABAA receptors | 215 ± 74% | 215% | 429 ± 120% | 16 ± 4% | 33 ± 12% | – | – | – | –
2 | CN1C(=O)CN=C(c2ccccc2)c2cc(Cl)ccc21 [diazepam] | – | – | – | – | – | – | – | – | – | – | – | – | 264+61% and 280+71% and 318+62% | 417+85% and 417+144% | 223+28% and 178+20% | 237+97% and 160+4%
